Patent US11583532B2, “Triazolopyrimidine derivatives for use as ghrelin o-acyl transferase (GOAT) inhibitors” (Boehringer Ingelheim International GmbH, priority 2018, dated 2023)

Molecular target: human GOAT (ghrelin O-acyl transferase) (Homo sapiens (Human), UniProt Q96T53)
Test: Determination of hGOAT activity in HEK293 cells after incubation with test compound (acyl-ghrelin ELISA)
Format: cell-based
Details: HEK293 cells stably transfected with preproghrelin and human GOAT cDNA; octanoate-BSA 100 μM; 5 hours incubation; acyl-ghrelin in medium by ELISA; 8 compound concentrations
Protocol: Determination of hGOAT Activity in HEK293 Cells after incubation with test compound
HEK293 cells stably transfected with two expression vectors, one coding for preproghrelin cDNA and a second for the expression of human GOATcDNA are used as a cellular model. After feeding the cells with octanoic acid for 5 hours, acyl-ghrelin is measured in cell culture medium by an ELISA procedure.
Cellline: Hek293 hGOAT/PPGhrl Clone #1B8Sodium octanoate, Sigma, Cat.-No. C5038
BSA: Sigma, Cat.-No. A8806
BD Poly-D-Lysin 384-well Plates, black-clear polystyrene BD Bioscience Cat.-No. […] ELISA human acylated Ghrelin Kit purchased from Bertin Pharman (detailed composition of buffers e.g. wash-puffer, ELISA buffer not known)
All further reagents used were of highest analytical grade available.
Cells are plated with a density of 5000 cells/well in 384-well poly-D-lysin plates and incubated for 1 day at 37° C., 5% CO2 in DMEM medium, 10% FCS, 1×NEAA, Puromycin (0.5 μg/ml) and G418 (1 mg/ml). Then the medium is changed to a identical medium without FCS and containing Octanoate-BSA (final concentration 100 μM each) and compound in DMSO (final DMSO concentration 0.3%). After incubation for 5 hours acylghrelin in the medium is measured by ELISA.
The medium sample is diluted 1:25 in Elisa buffer, a 25 μl aliquot is transferred to a 384-well ELISA plate previously washed 4 times with 100 μL wash buffer, and 25 μl tracer-solution is added. After incubation overnight (˜20 h) at 4° C. temperature the plate is washed 4 times with 100 μl wash-buffer per well. Finally 50 μl Ellman's reagent is added to each well and the plate is incubated in the dark for 20 minutes. The absorbance is measured at 405 nm in an Envision multilabel reader and the amount of acylated ghrelin is calculated according to a acylated ghrelin standard curve provided in the same plate.
The analysis of the data is performed by calculation of the percentage of acyl-ghrelin produced in the presence of test compound compared to the amount of acyl-ghrelin produced in the vehicle control samples. An inhibitor of the GOAT enzyme will give values between 100% CTL (no inhibition) and 0% CTL (complete inhibition).
IC50 values are calculated with Assay Explorer or other suited software based on curve fitting of results of 8 different compound concentrations.

Sequence of human GOAT (ghrelin O-acyl transferase) (Q96T53 whole entry): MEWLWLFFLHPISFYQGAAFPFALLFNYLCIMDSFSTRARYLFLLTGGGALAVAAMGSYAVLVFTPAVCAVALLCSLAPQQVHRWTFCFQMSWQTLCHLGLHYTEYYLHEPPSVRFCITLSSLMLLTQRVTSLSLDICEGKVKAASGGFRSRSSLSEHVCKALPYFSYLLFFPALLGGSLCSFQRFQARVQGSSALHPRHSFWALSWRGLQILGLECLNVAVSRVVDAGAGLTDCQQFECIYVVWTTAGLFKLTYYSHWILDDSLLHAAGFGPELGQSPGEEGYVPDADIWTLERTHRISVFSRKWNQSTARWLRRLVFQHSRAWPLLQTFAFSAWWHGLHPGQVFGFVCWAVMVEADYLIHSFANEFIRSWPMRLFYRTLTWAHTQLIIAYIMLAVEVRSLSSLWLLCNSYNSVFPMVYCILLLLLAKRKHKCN

`Cc1nc2ncnn2c(N)c1Cc1ccc(OC(F)(F)F)c(C(=O)NC(C)C)c1` [Example 15.3] and `Cc1nc2ncnn2c(N)c1Cc1ccc(OC(F)(F)F)c(C(N)=O)c1` [Example 15.4] are within 1.5-fold of each other in IC50: 8.6 nM for the first, 9.3 nM for the second.

`Cc1nc2ncnn2c(N)c1Cc1ccc(-c2c[nH]nc2C(F)(F)F)c(N)n1` [Example 16.1, 6-({7-Amino-5-methyl-[1,2,4]triazolo[1,5-a]pyrimidin-6-yl}methyl)-3-[3-(trifluoromethyl)-1H-pyrazol-4-yl]pyridin-2-amine] and `Cc1nc2ncnn2c(N)c1Cc1ccc(C(F)(F)F)c(C#N)n1` [Example 24.1, 6-({7-Amino-5-methyl-[1,2,4]triazolo[1,5-a]pyrimidin-6-yl}methyl)-3-(trifluoromethyl)pyridine-2-carbonitrile] are within 1.5-fold of each other in IC50: 3.1 nM for the first, 4.6 nM for the second.

Compared with `Nc1c(Cc2ccc(C(F)(F)F)cc2)c(C(F)F)nc2ncnn12` [Example 17.1, 5-(Difluoromethyl)-6-{[4-(trifluoromethyl)phenyl]methyl}-[1,2,4]triazolo[1,5-a]pyrimidin-7-amine], `Nc1c(Cc2ccc(C(F)(F)F)cc2)c(Cl)nc2ncnn12` [Example 25.3] is 6-fold higher in IC50: 0.95 nM for the first, 5.7 nM for the second.

Going from `Cc1nc2ncnn2c(N)c1Cc1ccc(C(F)(F)F)cc1Br` [Example 17.2] to `Cc1nc2ncnn2c(N)c1Cc1ccc(C(F)(F)F)cc1F` [Example 21.1, 6-{[2-Fluoro-4-(trifluoromethyl)phenyl]methyl}-5-methyl-[1,2,4]triazolo[1,5-a]pyrimidin-7-amine], the IC50 rises from 5 nM to 8.1 nM (1.6-fold).

`Cc1nc2ncnn2c(N)c1Cc1ccc(S(=O)(=O)C(F)(F)F)cc1` [Example 18.1, 5-Methyl-6-[(4-trifluoromethanesulfonylphenyl)methyl]-[1,2,4]triazolo[1,5-a]pyrimidin-7-amine] and `Cc1nc2ncnn2c(N)c1Cc1ccc([S+]([O-])C(F)(F)F)cc1` (stereo not drawn) [Example 19.1, 5-M ethyl-6-[(4-trifluoromethanesulfinylphenyl)methyl]-[1,2,4]triazolo[1,5-a]pyrimidin-7-amine] are within 1.5-fold of each other in IC50: 4.2 nM for the first, 4.9 nM for the second.

`Cc1nc2ncnn2c(N)c1Cc1ccc(OC(F)(F)F)c(C#N)c1` [Example 20.1, 5-({7-Amino-5-methyl-[1,2,4]triazolo[1,5-a]pyrimidin-6-yl}methyl)-2-(trifluoromethoxy)benzonitrile] and `Cc1nc2ncnn2c(N)c1Cc1ccc(Br)c(C(=O)OCC(F)(F)F)c1` [Example 22.1, 2,2,2-Trifluoroethyl 5-({7-amino-5-methyl-[1,2,4]triazolo[1,5-a]pyrimidin-6-yl}methyl)-2-bromobenzoate] are within 1.5-fold of each other in IC50: 9.2 nM for the first, 7.2 nM for the second.

`Cc1nc2ncnn2c(N)c1Cc1ccc(Br)c(N2CCC(F)(F)C2)n1` [Example 23.1, 6-{[5-Bromo-6-(3,3-difluoropyrrolidin-1-yl)pyridin-2-yl]methyl}-5-methyl-[1,2,4]triazolo[1,5-a]pyrimidin-7-amine] and `Cc1nc2ncnn2c(N)c1Cc1ccc(Br)c(N2CC(F)(F)C2)n1` [Example 23.3] are within 1.5-fold of each other in IC50: 0.25 nM for the first, 0.36 nM for the second.

First: Cc1nc2ncnn2c(N)c1Cc1ccc(Br)c(N2CCC(F)(F)CC2)n1 [Example 23.2]
Second: Cc1nc2ncnn2c(N)c1Cc1ccc(Br)c(N2CCC(O)(C(F)(F)F)C2)n1 (stereo not drawn) [Example 23.5]
The IC50 of the first is 2.9-fold lower: 0.29 nM for the first, 0.83 nM for the second. The first is the more potent here.

Compared with `Cc1nc2ncnn2c(N)c1Cc1ccc(Br)c(N2CCC(C(F)(F)F)C2)n1` (stereo not drawn) [Example 23.4], `Cc1nc2ncnn2c(N)c1Cc1ccc(Br)c(N2CC(C(F)(F)F)C2)n1` [Example 23.7] is 11-fold higher in IC50: 0.7 nM for the first, 7.7 nM for the second.

`Cc1nc2ncnn2c(N)c1Cc1ccc(Br)c(N2Cc3ccc(F)cc3C2)n1` [Example 23.6] and `COc1cc(C(F)(F)F)ccc1Cc1c(Cl)nc2ncnn2c1N` [Example 25.1, 5-Chloro-6-{[2-methoxy-4-(trifluoromethyl)phenyl]methyl}-[1,2,4]triazolo[1,5-a]pyrimidin-7-amine] are within 1.5-fold of each other in IC50: 0.86 nM for the first, 0.83 nM for the second.

With `COc1cc(Cc2c(Cl)nc3ncnn3c2N)ccc1C(F)(F)F` [Example 25.2] the IC50 was 1 nM.
